Source: PubChem BioAssay AID2060897 (Molecular Pharmacology Branch, DTP, NCI, 2025)

Test system: 966289-007-R4-J1-PDC complex spheroid viability
Test: Anticancer human tumor 966289-007-R4-J1-PDC patient-derived pancreatic adenocarcinoma cell line growth inhibition [RAS]
Details: for IC50: curve of first compound; for viability, T/C: stronger effect = lower value
Outline: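 Agents were tested in combination matrices in half-log decrements from a top concentration at or near clinical Cmax (10 microM if undetermined). Targets were multi-cell spheroids of tumour lines plus HUVEC and MSC stromal cells.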
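Also: spheroids exposed to agents for one week before readout.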
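For viability, T/C in this document: percent viability relative to DMSO vehicle control wells as 100%.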

C=CC(=O)Nc1cc(Nc2nccc(-c3cn(C)c4ccccc34)n2)c(OC)cc1N(C)CCN(C)C + CCn1c(-c2cc(N3CCN(C)CC3)cnc2C(C)OC)c2c3cc(ccc31)-c1csc(n1)CC(NC(=O)C1CC1C)C(=O)N1CCCC(N1)C(=O)OCC(C)(C)C2
IC50 (second compound 0.000949 µM): > 1000 nM
IC50 (second compound 0.003 µM): > 1000 nM
IC50 (second compound 0.00949 µM): > 1000 nM
IC50 (second compound 0.03 µM): > 1000 nM
IC50 (second compound 0.0949 µM): > 1000 nM
IC50 (second compound 0.3 µM): > 1000 nM
viability, T/C (second compound 0.000949 µM, first compound 0.00316 µM): 88%
viability, T/C (second compound 0.000949 µM, first compound 0.01 µM): 88.8%
viability, T/C (second compound 0.000949 µM, first compound 0.0316 µM): 116%
viability, T/C (second compound 0.000949 µM, first compound 0.1 µM): 69.1%
viability, T/C (second compound 0.000949 µM, first compound 0.316 µM): 83.5%
viability, T/C (second compound 0.000949 µM, first compound 1 µM): 75.5%
viability, T/C (second compound 0.003 µM, first compound 0.00316 µM): 90.7%
viability, T/C (second compound 0.003 µM, first compound 0.01 µM): 92.2%
viability, T/C (second compound 0.003 µM, first compound 0.0316 µM): 80.2%
viability, T/C (second compound 0.003 µM, first compound 0.1 µM): 82.7%
viability, T/C (second compound 0.003 µM, first compound 0.316 µM): 110%
viability, T/C (second compound 0.003 µM, first compound 1 µM): 79.3%
viability, T/C (second compound 0.00949 µM, first compound 0.00316 µM): 111%
viability, T/C (second compound 0.00949 µM, first compound 0.01 µM): 87.6%
viability, T/C (second compound 0.00949 µM, first compound 0.0316 µM): 98.8%
viability, T/C (second compound 0.00949 µM, first compound 0.1 µM): 78.7%
viability, T/C (second compound 0.00949 µM, first compound 0.316 µM): 92.9%
viability, T/C (second compound 0.00949 µM, first compound 1 µM): 94.7%
viability, T/C (second compound 0.03 µM, first compound 0.00316 µM): 74.4%
viability, T/C (second compound 0.03 µM, first compound 0.01 µM): 71.4%
viability, T/C (second compound 0.03 µM, first compound 0.0316 µM): 100%
viability, T/C (second compound 0.03 µM, first compound 0.1 µM): 88.4%
viability, T/C (second compound 0.03 µM, first compound 0.316 µM): 120%
viability, T/C (second compound 0.03 µM, first compound 1 µM): 96.8%
viability, T/C (second compound 0.0949 µM, first compound 0.00316 µM): 86%
viability, T/C (second compound 0.0949 µM, first compound 0.01 µM): 111%
viability, T/C (second compound 0.0949 µM, first compound 0.0316 µM): 98.1%
viability, T/C (second compound 0.0949 µM, first compound 0.1 µM): 114%
viability, T/C (second compound 0.0949 µM, first compound 0.316 µM): 88.2%
viability, T/C (second compound 0.0949 µM, first compound 1 µM): 101%
viability, T/C (second compound 0.3 µM, first compound 0.00316 µM): 102%
viability, T/C (second compound 0.3 µM, first compound 0.01 µM): 89.6%
viability, T/C (second compound 0.3 µM, first compound 0.0316 µM): 103%
viability, T/C (second compound 0.3 µM, first compound 0.1 µM): 143%
viability, T/C (second compound 0.3 µM, first compound 0.316 µM): 123%
viability, T/C (second compound 0.3 µM, first compound 1 µM): 103%
